We go through 1 compound from patent publication EP3613735A1, “NOVEL SIRT 1 ACTIVATOR AND MEDICINAL USE THEREOF” (Pusan National University Industry - University Cooperation …, priority 2017, dated 2018).

What all share (format): cell-based
For one experiment, the system named is pro-collagen. Briefly: Pro-collagen expression in UVB photoaging of skin fibroblasts, Western blotting. The note with it: skin fibroblasts pretreated with 10 µM one hour before 8 mJ/cm^2 UVB; after 6 hours. How it is done: First, the effect of Compound 69c on pro-collagen expression by cell photoaging was analyzed. A collagen reduction model by UVB was constructed using skin fibroblasts to perform the experiments. Skin fibroblasts were pretreated with 10 µM Compound 69c one hour ago and irradiated with 8 mJ/cm^2 of UVB. After 6 hours, the cells were lysed and the expression of pro-collagen was confirmed via Western blotting.

The test system of a further experiment is p53. Briefly: Acetylation of p53 increased by UVB. An excerpt: Furthermore, SIRT 1 is known to exert its function through deacetylation of various substrate proteins.
The target in experiment [1] is T1, PPARβ/δ (Homo sapiens, UniProt Q03181).
T1 construct: endogenous in cells
T1 sequence (Q03181 1-441): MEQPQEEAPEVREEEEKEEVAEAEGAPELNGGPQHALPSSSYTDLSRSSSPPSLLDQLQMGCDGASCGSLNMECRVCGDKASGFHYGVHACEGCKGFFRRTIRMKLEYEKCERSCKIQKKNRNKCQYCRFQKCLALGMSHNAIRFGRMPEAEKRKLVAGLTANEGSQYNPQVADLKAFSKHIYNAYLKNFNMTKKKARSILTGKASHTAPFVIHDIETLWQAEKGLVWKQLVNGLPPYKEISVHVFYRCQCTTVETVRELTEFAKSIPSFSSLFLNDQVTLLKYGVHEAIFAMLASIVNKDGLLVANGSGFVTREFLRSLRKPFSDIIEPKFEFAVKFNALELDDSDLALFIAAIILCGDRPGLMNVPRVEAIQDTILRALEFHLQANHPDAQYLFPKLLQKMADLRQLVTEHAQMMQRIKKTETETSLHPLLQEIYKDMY
The experiment can be described thus: PPARβ/δ transfer into the nucleus, western blot. The conditions noted are these: 1 hour and 30 minutes after treating cells.

The test system of another experiment is SIRT 1. Briefly: SIRT 1 expression, real-time PCR and western blot. How it is done: To confirm whether Compound 69c increases the expression of SIRT 1 through the activation of PPARβ/δ, real-time PCR and western blot were performed.
The subject of a further experiment is skin fibroblasts. Briefly: β-galactosidase staining of UVB-induced cell aging. The note with it: UVB of 10 mJ/cm^2; pretreated at 10 µM for 24 hours. How it is done:
β-galactosidase is used to induce cellular aging of fibroblasts, which are the main cells of the epidermal layer of skin, by using UVB, the most important environmental factor in skin aging, as the most common marker for cell aging and β-galactosidase staining was performed to analyze the cell aging protection of Compound 32u. […]

In a further experiment the test system is MMP13. The experiment can be described thus: MMP13 expression in UVB photoaging of skin fibroblasts, Western blotting. The note with it: skin fibroblasts pretreated with 10 µM 1 hour before 8 mJ/cm^2 UVB; after 6 hours. How it is done:
(§1) Based on this, in order to confirm the effect of Compound 69c on the expression level of intracellular MMPs, 10 µM of Compound 69c was pretreated 1 hour prior to skin fibroblasts and irradiated with UVB of 8 mJ/cm^2. After 6 hours, cells were lysed and the expression levels of MMP1 and MMP13 were confirmed by Western blotting.

Another experiment has as its system MMP1. The experiment can be described thus: MMP1 expression in UVB photoaging of skin fibroblasts, Western blotting. The conditions noted are these: skin fibroblasts pretreated with 10 µM 1 hour before 8 mJ/cm^2 UVB; after 6 hours. As for the experimental part: as §1
The test system of experiment [2] is reactive oxygen species (ROS). Briefly: Reactive oxygen species with DCF-DA fluorescent dye.
The target of experiment [3] is T1, PPARβ/δ. The experiment can be described thus: PPAR response element (PPRE)-luciferase assay in fibroblasts. The conditions noted are these: fibroblasts overexpressing PPARβ/δ; compared with GW501516. How it is done: Next, to analyze the effect of PPARβ/δ activity of Compound 69c, a PPAR response element (PPRE)-luciferase assay was performed on fibroblasts, which are the main cells of the skin epithelial layer. A binding site region of PPARβ/δ, i.e. plasmids in which the PPRE region was bound upstream of the luciferase gene were transfected by treating the cells with lipofectamine. Through this process, DNA is surrounded by lipofectamine, making it easier to pass the cell membrane. In addition, it is possible to identify which of the PPAR subtypes is effective by overexpressing PPARβ/δ in addition to the endogenous PPAR subtype. 18 to 24 hours after transduction, at least 5 hours after treatment with the candidate compound, fluorescence was measured by addition of the substrate of the luciferase assay system. Luciferase expression amount can be analyzed by the fluorescence value, and the activity level of PPARβ/δ can be analyzed through the above results.

On to `CN1CCN(Cc2ccc3oc(-c4ccccc4NC(=O)c4ccc5ccccc5c4)nc3c2)CC1` [Compound 69c, N-(2-(5-((4-Methylpiperazin-1-yl)methyl)benzo[d]oxazol-2-yl)phenyl)-2-naphthamide], for which, in the experiment with pro-collagen, the expression of pro-collagen result was “increased”. The “acetylation of p53” value with p53 is reported as “inhibited acetylation of p53 increased by UVB”. Further, the “PPARβ/δ transfer in the nucleus” value at PPARβ/δ [1] was “increase in PPARβ/δ transfer in the nucleus”. Moreover, the “mRNA expression level of SIRT 1” value in the experiment on SIRT 1 (real-time PCR) was “increased”. For the same compound, the “protein expression level of SIRT 1” value in the experiment with SIRT 1 (western blot) was “increased”. Also, in the experiment on skin fibroblasts, the β-galactosidase staining entry is on record as “reduced”. Besides, the “expression of MMP13” value in the experiment with MMP13 is on record as “reduced”. The “expression of MMP1” value in the experiment on MMP1 is listed as “reduced”. Moreover, the “reactive oxygen species induced by UVB” value in experiment [2] is given as “inhibited”. The “PPARβ/δ activity (PPRE-luciferase)” value on PPARβ/δ [3] is reported as “higher PPARβ/δ activity than GW501516”.
